Experimental findings from US6329344A, “Derivatives of monosaccharides as cell adhesion inhibitors” (Ranbaxy Laboratories Limited, priority 1998, dated 2001) are described below.

The subject of this assay is murine contact hypersensitivity response. The assay is described as follows: Mouse Ear Swelling Test (MEST), DNFB contact hypersensitivity. The class given is in vivo, Swiss albino mice. The conditions noted are these: ear thickness 24 hours after challenge; for ED30 / ED40: Mus musculus, 24 h; for ED30: read-out: EC30 (ED30, dose for 30% inhibition of ear swelling); for ED40: read-out: EC40 (ED40, dose for 40% inhibition of ear swelling). The text has this: The in vitro cell adhesion assay was used to measure the effect of a test compound on adhesion of human T cell line (Jurkat J6) on surfaces coated with VCAM-1. The MEST assesses the ability of the experimental compounds to inhibit the delayed-type hypersensitivity response of sensitized mice against a potent allergen, 1,4-Dinitrofluoro benzene. These two assays are appropriate for screening compounds for two different activities. The cell adhesion assay determines the effect of compounds on the interaction of VLA4 molecules expressed on the surface of Jurkat cells with its counter-receptor, VCAM-1, immobilized on microtitre plate surface. Conversely, the MEST determines the potency of compounds to inhibit the murine contact hypersensitivity response induced by exposing mice to the potent allergen 1,4-Dinitrofluoro benzene. The Chisolm et al method was used in this respect (Chisolm et al, Eur. J. Immunology 1993;23:682).
We tested the efficacy of compounds synthesized in this invention to inhibit the act hypersensitivity in Swiss mice as follows:
20 to 25 gm female Swiss albino mice (animals procured from National Institute of Immunology, New Delhi, India and maintained in our Experimental Animal Facility) were anesthetized with anesthetic ether (Sisco Research Laboratories Ltd., India). A 2 cm^2 patch of dorsal skin was shaved using a hair clipper. The exposed skin was then dermabraded using No. 100 sandpaper gently. 25 μL freshly prepared 0.5% 1,4-Dinitrofluoro benzene in 4:1 (v/v) acetone:olive oil solution was then topically applied onto the dermabraded skin to encourage a mild inflammation reaction. Twenty-four hours after the initial sensitization, the mice were again sensitized with 25 μL freshly prepared 0.5% 1,4-Dinitrofluor benzene (DNFB) in 4:1 (v/v) acetone:olive oil solution on the same dermabraded site as before. The second sensitization was performed while restraining the non-anesthetized, conscious mouse.
2. Administration of Compound
On day 5, compounds were dissolved in an aqueous solvent (pyrogen-free water, alkaline water, or ethanol) and further diluted in pyrogen-free water to prepare appropriate doses. Solutions were administered by intravenous, subcutaneous or oral route.
3. Challenge and Measurement of Ear Thickness
Two hours following administration of the compounds, the animals were physically restrained and painted with 25 μL of freshly prepared 0.5% DNFB in 4:1 (v/v) acetone:olive oil solution on the right ear. The thickness of the right ear was measured using a Series 300 Odimeter (Dyer Gauge Inc, USA) at the time of challenge (0 hr), 4 hours and 24 hours after challenge while physically restraining the non-anesthetized mice. In a separate experiment, it was ascertained that 4:1 (v/v) acetone:olive oil vehicle has no effect on ear thickness.
4. Determination of Effective Concentration of the Compounds
Inhibition of the ear swelling was judged by comparison of treated groups with their negative control groups. Percent inhibition was calculated as: [formula]
STEST =Mean ear thickness in test group at 24 hours after challenge
STEST-zero =Mean ear thickness in test group at zero hours after challenge
SNC =Mean ear thickness in negative control group at 24 hours after challenge
SNC-zero =Mean ear thickness in negative control group at zero hours after challenge
The percentage inhibition of swelling obtained by the above calculation was plotted against log dose using the Graph Pad Prizm software and, from this plot, the log dose corresponding to 30% inhibition (log ED30) and 40% (log ED40) inhibition was determined.
Aqueous solutions of appropriate doses (1 μg/kg to 100 mg/kg) were administered by intravenous route 2 hrs before challenge and their effect on ear thickness was measured. Concentrations inhibiting ear swelling by 30% and 40% were determined and expressed as amount (ng, μg or mg) per Kg body weight.

The mark [1] stands for this setting: I.V., amount per Kg body weight.
Where [2] appears, read: S.C., amount per Kg body weight.

Like-named read-outs stand apart in the source and are kept apart here.

With `CCCCCCCCCCCCO[C@@H]1[C@H]2OC(C)(C)O[C@H]2O[C@@H]1CNC(=O)Nc1ccc(CC(=O)O)cc1` [Compound 53, 1,2-O-isopropylidene-3-O-dodecyl-5-deoxy-5-N-{[4-(2-hydroxy-2-oxoethyl)phenyl]aminocarbonylamino}-α,D-xylofuranose], the ED30 under setting [1] is 0.01 mg/kg, the ED30 (Oral) was found to be 0.001 mg/kg and the ED30 under setting [2] is 0.0005 mg/kg. Besides, the ED40 by setting is: under setting [1], 0.07 mg/kg; under setting [2], 0.01 mg/kg.

`CCCCCCCCCCCCO[C@H]1[C@H]2OC(C)(C)O[C@H]2O[C@@H]1CNC(=O)Nc1ccc(CC(=O)O)cc1` [Compound 76, 1,2-O-isopropylidene-3-O-dodecyl-5-deoxy-5-N-{[4-(2-hydroxy-2-oxoethyl)phenyl]aminocarbonylamino}-α,D-ribofuranose]: for the setting “Oral”, the ED30 was 0.00029 mg/kg and the ED40 was 0.0813 mg/kg.

On to `CC(C)C[C@H](NC(=O)[C@@]12O[C@H]3COC(C)(C)O[C@H]3[C@@H]1OC(C)(C)O2)C(=O)N[C@@H](CC(=O)O)C(=O)N[C@H](C(=O)N1CCC[C@H]1C(=O)O)C(C)C` [Compound 122, 2,3; 4,6-Di-O-isopropylidene-1-carbonyl-L-Leucyl-α,L-Aspartyl-L-Valyl-LProline-α,L-xylo-2-hexulofuranosonic acid], for which, under setting [1], the EC30 (ED30, dose for 30% inhibition of ear swelling) was 8 mg/kg and the ED30 was found to be 12 mg/kg.
